Experimental data: patent publication US7205326B2, “Aniline derivatives, their manufacture and use as pharmaceutical agents” (Hoffmann-La Roche Inc., priority 2003, dated 2007)

Experiments:
HCT116 cells = assay: HCT116 cell proliferation MTT assay; assay type: cell-based; details: HCT-116; HCT116 human colon carcinoma cells, MTT assay after 5 days (120 h) incubation, compound 3 uM to 0.15 nM
Method: HCT116 cells (human colon carcinoma cell line) were cultivated in RPMI 1640, 2.5% FCS, 2 mM Glutamine, 100 u/ml Penicillin, 100 ug/ml Streptomycin. For the assay the cells were seeded in 384 well plates, 1000 cells per well, in the same medium
The next day compounds (dissolved 10 mM in DMSO) were added in various concentrations ranging from 3 uM to 0.15 nM. After 5 days the MTT assay was done mainly according to the instructions of the manufacturer (Cell proliferation kit I, MTT, from Roche Molecular Biochemicals). In brief: MTT labeling reagent was added to a final concentration of 0.5 mg/ml, added and incubated for 4 hrs at 37° C., 5% CO2. During this incubation time purple formazan crystals are formed. After addition of the solubilization solution (20% SDS in 0.02 M HCl) the plates were incubated overnight at 37° C., 5% CO2. After careful mixing plates were measured in Victor 2 (scanning multiwell spectrophotometer, Wallac) at 550 nm.
A decrease in number of living cells results in a decrease in the total metabolic activity in the sample. The decrease directly correlates to the amount of purple color resulting from the solubilization of the purple formazan crystals.
Materials: • HCT116 1000 cells in 60 ul per well of 384 well plate (Greiner) • Medium: RPMI 1640, 2.5% FCS, glutamine, pen/strep. • Incubate 1 day at 37° C.
Induction: • Dilution of compound in DMSO: 3 ul 10 mM+27 ul DMSO, dilute 1:3 • Add 2 ul of compound dilution row to 95 ul of medium • Add 10 ul of compound dilution to 60 ul medium in test plate results in 0.3% DMSO per well • Incubate 120 h (5 days) at 37° C., 5% CO2
Analysis: • Add 7 ul MTT ([…]), incubate 4 h at 37° C. • Add 30 ul lysis buffer (20% SDS, 0.04N HCl) per well • Incubate overnight at 37° C.
Measurement: • Victor 2 (scanning multiwell spectrophotometer, Wallac), at 550 nm • Determination of IC50 was done using XL-fit.

| melting point [°C] | IC50 (HCT116 cells) [µM] | SMILES |
| --- | --- | --- |
| 121 to 124 | > 0.04 | [O-][S+](c1ccc(/C=C/c2nc(CNc3ccc(CCCCn4ccnn4)cc3)co2)cc1)C(F)(F)F (centres unmarked) [Example 33, [4-(4-[1,2,3]Triazol-1-yl-butyl)phenyl]-{2-[(E)-2-(-4-trifluoromethanesulfinyl-phenyl)-vinyl]-oxazol-4-ylmethyl}-amine] |
| 76.8 to 78.8 | < 0.02 | Clc1ccc(C=Cc2nc(CNc3ccc(CCCCn4ccnn4)cc3)co2)cc1Cl [Example 25, {2-[2-(3,4-Dichloro-phenyl)-vinyl]-oxazol-4-ylmethyl}-[4-(4-[1,2,3]triazol-1-yl-butyl)-phenyl]-amine] |

The remaining lines, values behind:

| SMILES | melting point [°C] | IC50 (HCT116 cells) [µM] |
| --- | --- | --- |
| O=C(Nc1ccc(CCCCn2ccnn2)cc1)c1coc(C=Cc2ccc(C(F)(F)F)cc2)n1 [Example 11, 2-[2-(4-Trifluoromethyl-phenyl)-vinyl]-oxazole-4-carboxylic acid [4-(4-[1,2,3]triazol-1-yl-butyl)-phenyl]-amide] | 183 to 185 | 0.02 to 0.04 |
| FC1(F)Oc2ccc(C=Cc3nc(CNc4ccc(CCCCn5ccnn5)cc4)co3)cc2O1 [Example 7, {2-[2-(2,2-Difluoro-benzo[1,3]dioxol-5-yl)-vinyl]-oxazol-4-ylmethyl}-[4-(4-[1,2,3]triazol-1-yl-butyl)-phenyl]-amine] | 102 to 104 | > 0.04 |
| CN(Cc1coc(C=Cc2ccc(C(F)(F)F)cc2)n1)c1ccc(OCCCn2ccnn2)cc1 [Example 10, Methyl-[4-(3-[1,2,3]triazol-1-yl-propoxy)-phenyl]-{2-[2-(4-trifluoromethyl-phenyl)-vinyl]-oxazol-4-ylmethyl}-amine] | 137 to 138 | > 0.04 |
| FC(F)Oc1ccc(C=Cc2nc(CNc3ccc(CCCCn4ccnn4)cc3)co2)cc1 [Example 4, {2-[2-(4-Difluoromethoxy-phenyl)-vinyl]-oxazol-4-ylmethyl}-[4-(4-[1,2,3]triazol-1-yl-butyl)-phenyl]-amine] | 101 to 102 | > 0.04 |
| CN(Cc1coc(C=Cc2ccc(C(F)(F)F)cc2)n1)c1ccc(CCCCn2ccnn2)cc1 [Example 3, Methyl-[4-(4-[1,2,3]triazol-1-yl-butyl)-phenyl]-{2-[2-(4-trifluoromethyl-phenyl)-vinyl]-oxazol-4-ylmethyl}-amine] | 112 to 114 | < 0.02 |
